Test results taken from ChEMBL document CHEMBL1221214, “Cytosporone B is an agonist for nuclear orphan receptor Nur77” (Nat Chem Biol, 2008).
Calls of active or inactive are those of the source.

Assays:
[1] = target: Nuclear receptor subfamily 4 group A member 1 (Mus musculus) (UniProt P12813); test: Agonist activity at Nur77 in wild-type mouse C57BL/6 assessed as phosphofructokinase mRNA at 50 mg/kg, ip within 30 to 300 mins by real-time PCR analysis; assay type: functional, organism-based; design: dose 50 mg/kg
[2] = target: Nuclear receptor subfamily 4 group A member 1 (Mus musculus) (UniProt P12813); test: Agonist activity at Nur77 in Nr4A1 deficient mouse assessed as transcriptional activation of luciferase reporter gene relative to control; assay type: functional
[3] = target: Nuclear receptor subfamily 4 group A member 3 (Homo sapiens) (UniProt Q92570); test: Agonist activity at nuclear orphan receptor NOR1 expressed in human BGC823 cells co-transfected with fused GAL4-NOR1(LBD) assessed as transactivation after 12 hrs by transactivation assay; assay type: functional, cell-based; conditions: BGC-823

Measured: Activity

Sequence of Nuclear receptor subfamily 4 group A member 1 (Mus musculus) (P12813 whole entry, the tested form may be a part): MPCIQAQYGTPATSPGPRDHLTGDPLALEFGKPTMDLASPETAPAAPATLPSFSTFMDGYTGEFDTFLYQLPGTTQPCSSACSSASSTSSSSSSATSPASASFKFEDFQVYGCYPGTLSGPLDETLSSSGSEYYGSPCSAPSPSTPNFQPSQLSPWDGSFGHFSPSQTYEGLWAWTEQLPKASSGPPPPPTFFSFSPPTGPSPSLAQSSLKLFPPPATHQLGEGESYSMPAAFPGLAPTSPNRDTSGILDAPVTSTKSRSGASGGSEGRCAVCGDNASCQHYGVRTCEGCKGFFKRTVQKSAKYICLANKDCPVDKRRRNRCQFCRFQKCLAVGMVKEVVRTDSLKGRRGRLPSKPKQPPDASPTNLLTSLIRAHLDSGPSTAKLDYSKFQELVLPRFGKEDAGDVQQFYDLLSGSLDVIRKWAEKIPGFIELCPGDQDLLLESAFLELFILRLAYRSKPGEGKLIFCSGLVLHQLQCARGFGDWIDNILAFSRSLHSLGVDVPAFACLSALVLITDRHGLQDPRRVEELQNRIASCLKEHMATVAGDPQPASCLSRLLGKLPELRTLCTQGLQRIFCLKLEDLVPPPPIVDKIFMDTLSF
Sequence of Nuclear receptor subfamily 4 group A member 3 (Homo sapiens) (Q92570 whole entry, the tested form may be a part): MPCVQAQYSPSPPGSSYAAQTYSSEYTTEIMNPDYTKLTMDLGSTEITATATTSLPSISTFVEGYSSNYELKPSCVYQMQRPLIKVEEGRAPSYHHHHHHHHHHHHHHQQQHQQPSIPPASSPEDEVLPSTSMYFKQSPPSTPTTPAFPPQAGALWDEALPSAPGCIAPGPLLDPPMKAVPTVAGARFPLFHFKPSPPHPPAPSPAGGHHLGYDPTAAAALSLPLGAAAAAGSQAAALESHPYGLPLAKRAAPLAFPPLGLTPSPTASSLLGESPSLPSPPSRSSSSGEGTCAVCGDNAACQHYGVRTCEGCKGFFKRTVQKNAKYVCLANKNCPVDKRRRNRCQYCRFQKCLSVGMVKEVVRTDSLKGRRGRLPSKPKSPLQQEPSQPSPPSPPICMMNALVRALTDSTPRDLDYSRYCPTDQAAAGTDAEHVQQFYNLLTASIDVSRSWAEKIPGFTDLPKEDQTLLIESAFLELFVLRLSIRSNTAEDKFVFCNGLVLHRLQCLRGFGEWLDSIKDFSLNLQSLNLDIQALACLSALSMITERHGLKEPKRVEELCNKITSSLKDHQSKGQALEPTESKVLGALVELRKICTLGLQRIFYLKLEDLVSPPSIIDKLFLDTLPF

CCCCCCCC(=O)c1c(O)cc(O)cc1CC(=O)OCC [CYTOSPORONE B]
inactive: all assays above
